According to patent US8501239B2 (priority 2005, dated 2013):
Like-named read-outs stand apart in the source and are kept apart here.

Tests used:
[1] = test system: Adult Sprague-Dawley rats; type: in vivo, rat
humans = conditions: cited from earlier work
contusion SCI = assay: Tissue sparing following moderate contusion SCI, T10 lesion epicenter; type: in vivo; conditions: 5 mg/kg, 15 mins post-injury, 48 hours after SCI, p<0.05
Method: Bar graphs representing the extent of tissue sparing measured through cross-sections of the T10 segment injury epicenters 48 hours after a moderate (150 kydn) contusion SCI. […] Bars represent group means, SEM (n=5-6/group). Using an unpaired t-test, * indicates p<0.05 compared to vehicle-treated groups.

rat brain = conditions: model of focal ischemia-reperfusion injury in the rat brain; cited from earlier work

Compound | tissue sparing compared to vehicle-treated animals ([1]; TBI rats, dosed 5 min post-injury (5 mg/kg 2,4-DNP, 2.5 mg/kg FCCP, 6.2 mg/kg), 15 days post-injury, p<0.01) | tissue sparing compared to vehicle-treated animals ([1]; rat, in vivo) | weight loss as a function of dose (humans; FIG. 1 left panel, regardless of diet or lifestyle) | metabolism as a function of dosage (humans; FIG. 1 right panel) | cross-sectional area of tissue preservation at lesion epicenter (contusion SCI; vs vehicle (DMSO)) | percentage of tissue sparing at the lesion epicenters (contusion SCI; vs vehicle controls) | reduction of infarct volume (rat brain)
N#CC(C#N)=NNc1ccc(OC(F)(F)F)cc1 [FCCP, carbonyl cyanide 4-trifluoromethoxy phenylhydrazone] | significantly increased tissue sparing |  |  |  |  |  | 
O=[N+]([O-])c1ccc(O)c([N+](=O)[O-])c1 [2,4-DNP, 2,4-dinitrophenol] |  | significantly increased tissue sparing | very linear increase in weigh loss | linear increase in metabolism | significantly greater cross-sectional area of tissue preservation | significantly higher percentage of tissue sparing | approximately 40%
